Several values for one entry are separate records, joined by “and”; a condition that tells them apart may be missing. Identical values can stand only once. Numbers after ± are expanded uncertainties.
Experiments:
[1] = Liquid; for speed of sound: Sing-around technique in a fixed-path interferometer; for mass density: Vibrating tube method
[2] = refractive index (Na D-line) (dimensionless); conditions: 101.33 kPa, Liquid, Standard Abbe refractometry
[3] = refractive index (Na D-line) (dimensionless); xn = mol fraction of the nth substance listed; conditions: 101 kPa, Liquid, Standard Abbe refractometry, x2 = 0
[4] = xn = mol fraction of the nth substance listed; conditions: Liquid, x2 = 0; for speed of sound: Sing-around technique in a fixed-path interferometer; for mass density: Vibrating tube method

C=CC(C)(O)CCC=C(C)C (stereo not given) [3,7-dimethyl-1,6-octadien-3-ol]
[1]
Conditions	mass density, 101.33 kPa [kg/m3]	mass density, 20000 kPa [kg/m3]	mass density, 25000 kPa [kg/m3]	mass density, 30000 kPa [kg/m3]	mass density, 35000 kPa [kg/m3]	mass density, 40000 kPa [kg/m3]	speed of sound, 101 kPa [m/s]	speed of sound, 101.33 kPa [m/s]
283.15 K	869.39 ± 0.63	880.8 ± 0.8	883.7 ± 0.9	886.1 ± 0.9	888.9 ± 0.9	891.4 ± 0.9	1370.6 ± 2	1370.3 ± 2
298.15 K	857 ± 0.62	869.4 ± 0.8	872.3 ± 0.9	875.2 ± 0.9	877.9 ± 0.9	880.6 ± 0.9	1315.1 ± 2	1313.1 ± 2
313.15 K	844.29 ± 0.61	857.6 ± 0.8	860.9 ± 0.9	863.9 ± 0.9	866.8 ± 0.9	869.7 ± 0.9	–	1260.8 ± 2
328.15 K	831.31 ± 0.6	846 ± 0.8	849.3 ± 0.9	852.6 ± 0.9	855.7 ± 0.9	858.8 ± 0.9	–	1207.6 ± 2

[2]
Conditions	refractive index
283.15 K	1.46659 ± 0.00049 and 1.4666 ± 0.00049
298.15 K	1.45946 ± 0.00049
313.15 K	1.45215 ± 0.00049
328.15 K	1.44473 ± 0.00049

CCO [ethanol]
[1]
Conditions	mass density, 101 kPa [kg/m3]	mass density, 101.33 kPa [kg/m3]	mass density, 20000 kPa [kg/m3]	mass density, 25000 kPa [kg/m3]	mass density, 30000 kPa [kg/m3]	mass density, 35000 kPa [kg/m3]	mass density, 40000 kPa [kg/m3]	speed of sound, 101.33 kPa [m/s]
283.15 K	798.28 ± 0.12	798.27 ± 0.13	812.8 ± 0.6	816.5 ± 0.6	819.8 ± 0.6	823 ± 0.6	826.1 ± 0.6	1196.2 ± 0.7
298.15 K	785.46 ± 0.12	785.45 ± 0.14	801.5 ± 0.6	805.3 ± 0.6	808.8 ± 0.6	812.2 ± 0.6	815.5 ± 0.6	1146.2 ± 0.7
313.15 K	–	772.39 ± 0.14	789.8 ± 0.6	794 ± 0.6	797.4 ± 0.6	801 ± 0.6	804.8 ± 0.6	1096.7 ± 0.7
328.15 K	–	758.93 ± 0.15	777.8 ± 0.6	782.2 ± 0.6	786.3 ± 0.6	790 ± 0.6	793.9 ± 0.6	1047 ± 0.7

[2]
Conditions	refractive index
283.15 K	1.36546 ± 0.00031
298.15 K	1.35984 ± 0.00031
313.15 K	1.35409 ± 0.00031
328.15 K	1.34827 ± 0.00031

CCO [ethanol] + C=CC(C)(O)CCC=C(C)C
[3]
Conditions	refractive index
283.15 K	1.36546 ± 0.00031
298.15 K	1.35984 ± 0.00031
313.15 K	1.35409 ± 0.00031
328.15 K	1.34827 ± 0.00031

[4]
Conditions	mass density, 101 kPa [kg/m3]	mass density, 20000 kPa [kg/m3]	mass density, 25000 kPa [kg/m3]	mass density, 30000 kPa [kg/m3]	mass density, 35000 kPa [kg/m3]	mass density, 40000 kPa [kg/m3]	speed of sound, 101 kPa [m/s]
283.15 K	798.28 ± 0.12	812.8 ± 0.6	816.5 ± 0.6	819.8 ± 0.6	823 ± 0.6	826.1 ± 0.6	1196.2 ± 0.7
298.15 K	785.46 ± 0.12	801.5 ± 0.6	805.3 ± 0.6	808.8 ± 0.6	812.2 ± 0.6	815.5 ± 0.6	1146.2 ± 0.7
313.15 K	772.39 ± 0.13	789.8 ± 0.6	794 ± 0.6	797.4 ± 0.6	801 ± 0.6	804.8 ± 0.6	1096.7 ± 0.7
328.15 K	758.93 ± 0.13	777.8 ± 0.6	782.2 ± 0.6	786.3 ± 0.6	790 ± 0.6	793.9 ± 0.6	1047 ± 0.7
